# Test results taken from patent US20240148821A1, “PHARMACEUTICAL USE OF CYCLIC PEPTIDE COMPOUND” (CHUGAI SEIYAKU KABUSHIKI KAISHA, priority 2021, published 2024).
# Numbered stars: 1 amine (or outer) side, 2 acyl side, 3 side chain; on linkers, the order of the positions; unused ones are H or OH. Bridge positions count the residues as written; N and C are the ends. Square brackets hold non-standard residues; d marks the D form. Peptide text beside a SMILES is read from it. * marks the point of attachment. hPhe(3,5-F2-4-CF3) = N[C@@H](CCc1cc(F)c(C(F)(F)F)c(F)c1)C(=O)O; hPhe(3-Cl-4-CF3) = N[C@@H](CCc1ccc(C(F)(F)F)c(Cl)c1)C(=O)O; NMePhe(4-CF3) = CN[C@@H](Cc1ccc(C(F)(F)F)cc1)C(=O)O; dβ3h(hPhe) = O=C(C[C@@H](CCc1ccccc1)N[*:1])[*:2]; NMePhe(4-Me) = CN[C@@H](Cc1ccc(C)cc1)C(=O)O; NMedβ3hAla = C[C@H](CC(=O)[*:2])N(C)[*:1]; NMeNva(5,5-F2) = CN[C@@H](CCC(F)F)C(=O)O; X133 = O=C(C[C@H](N[*:1])C(F)(F)F)[*:2]; NMeGly(cPent) = CN[C@H](C(=O)O)C1CCCC1; NMeCha = CN[C@@H](CC1CCCCC1)C(=O)O; X76 = C=CC[C@H](CC(=O)[*:2])N[*:1]; NMehLeu = CN[C@@H](CCC(C)C)C(=O)O; Hyp = O=C(O)[C@@H]1C[C@@H](O)CN1; NMeAhp(2) = CCCCC[C@H](NC)C(=O)O; NMeChg = CN[C@H](C(=O)O)C1CCCCC1; NMeF = CN[C@@H](Cc1ccccc1)C(=O)O; NMeI = CC[C@H](C)[C@H](NC)C(=O)O; d(β3hL) = CC(C)C[C@@H](N)CC(=O)O; NMeD = CN[C@@H](CC(=O)O)C(=O)O; dNMeD = CN[C@H](CC(=O)O)C(=O)O; NMeL = CN[C@@H](CC(C)C)C(=O)O; NMeNle = CCCC[C@H](NC)C(=O)O; NMeV = CN[C@H](C(=O)O)C(C)C; d(β3hA) = C[C@@H](N)CC(=O)O; NMeA = CN[C@@H](C)C(=O)O; Piperidide = C1CCN(*)CC1; Pyrrolidide = C1CCN(*)C1; Ac5c = NC1(C(=O)O)CCCC1; Aze = O=C(O)[C@@H]1CCN1; Sar = CNCC(=O)O
# Molecular target: protein-protein interaction between Kras and SOS1 (biotin-tagged human Kras loaded with GDP, His-tagged human SOS1) (Homo sapiens (Human), UniProt P01116, G12D)
# Assay: Protein-protein interaction inhibition between Kras and SOS1 (KrasG12D-SOS PPI) using AlphaScreen;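 note: kras produced in E. coli, Ni-coupled donor beads and streptavidin acceptor beads, excitation 680 nm with emission detected at 520–620 nm via singlet oxygen transfer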
# Type: biochemical
# Conditions: AlphaScreen; biotin-tagged human Kras loaded with GDP, His-tagged human SOS1; read-out: KRAS G12D-SOS PPI IC50
row,Compound,IC50
1,"CC[C@H](C)[C@@H]1NC(=O)[C@H](CCC(F)F)N(C)C(=O)C[C@@H](C(=O)N2CCCCC2)N(C)C(=O)[C@H](C(C)C)N(C)C(=O)C2(CCCC2)NC(=O)[C@@H]2CCCN2C(=O)[C@H](CCc2ccc(C(F)(F)F)c(Cl)c2)NC(=O)CN(C)C(=O)[C@H](CC2CCCCC2)N(C)C(=O)[C@@H]2CCN2C(=O)[C@H](C)N(C)C1=O [Compound 1797] ([NMeNva(5,5-F2)]I[NMeA][Aze][NMeCha][Sar][hPhe(3-Cl-4-CF3)]P[Ac5c][NMeV][NMeD]-Piperidide; lactam N-11)",3.7 nM
2,CC[C@H](C)[C@@H]1NC(=O)[C@H](CC(C)C)N(C)C(=O)C[C@@H](C)N(C)C(=O)[C@H](C(C)C)N(C)C(=O)C2(CCCC2)NC(=O)[C@@H]2CCCN2C(=O)[C@H](CCc2ccc(C(F)(F)F)c(Cl)c2)NC(=O)CN(C)C(=O)[C@H](CC2CCCCC2)N(C)C(=O)[C@@H]2CCN2C(=O)[C@H](C)N(C)C1=O [Compound 1800] (cyclo([Ac5c][NMeV][NMedβ3hAla][NMeL]I[NMeA][Aze][NMeCha][Sar][hPhe(3-Cl-4-CF3)]P)),11 nM
3,CC[C@H](C)[C@@H]1NC(=O)[C@H](CC(C)C)N(C)C(=O)C[C@@H](C)NC(=O)[C@H](C(C)C)N(C)C(=O)C2(CCCC2)NC(=O)[C@@H]2CCCN2C(=O)[C@H](CCc2ccc(C(F)(F)F)c(Cl)c2)NC(=O)CN(C)C(=O)[C@H](Cc2ccc(C)cc2)N(C)C(=O)[C@@H]2CCN2C(=O)[C@H](C)N(C)C1=O [Compound 1801] (cyclo([Ac5c][NMeV][d(β3hA)][NMeL]I[NMeA][Aze][NMePhe(4-Me)][Sar][hPhe(3-Cl-4-CF3)]P)),2.9 nM
4,CC[C@H](C)[C@@H]1NC(=O)[C@H](CC(C)C)N(C)C(=O)C[C@@H](C(=O)N2CCCCC2)N(C)C(=O)[C@H](C(C)C)N(C)C(=O)C2(CCCC2)NC(=O)[C@@H]2CCCN2C(=O)[C@H](CCc2ccc(C(F)(F)F)c(Cl)c2)NC(=O)CN(C)C(=O)[C@H](Cc2ccc(C)cc2)N(C)C(=O)[C@@H]2CCN2C(=O)[C@H](C)N(C)C1=O [Compound 1828] ([NMeL]I[NMeA][Aze][NMePhe(4-Me)][Sar][hPhe(3-Cl-4-CF3)]P[Ac5c][NMeV][NMeD]-Piperidide; lactam N-11),2.7 nM
5,CC[C@H](C)[C@@H]1NC(=O)[C@H](CCC(C)C)N(C)C(=O)C[C@@H](C(=O)N2CCCCC2)N(C)C(=O)[C@H](C(C)C)N(C)C(=O)C2(CCCC2)NC(=O)[C@@H]2CCCN2C(=O)[C@H](CCc2ccc(C(F)(F)F)c(Cl)c2)NC(=O)CN(C)C(=O)[C@H](CC2CCCCC2)N(C)C(=O)[C@@H]2CCN2C(=O)[C@H](C)N(C)C1=O [Compound 1833] ([NMehLeu]I[NMeA][Aze][NMeCha][Sar][hPhe(3-Cl-4-CF3)]P[Ac5c][NMeV][NMeD]-Piperidide; lactam N-11),7.5 nM
6,CC[C@H](C)[C@@H]1NC(=O)[C@H](C)N(C)C(=O)C[C@@H](C(=O)N2CCCCC2)N(C)C(=O)[C@H](C(C)C)N(C)C(=O)C2(CCCC2)NC(=O)[C@@H]2CCCN2C(=O)[C@H](CCc2ccc(C(F)(F)F)c(Cl)c2)NC(=O)[C@H]2CCCN2C(=O)[C@H](Cc2ccccc2)N(C)C(=O)[C@@H]2CCCN2C(=O)CN(C)C1=O [Compound 1839] ([NMeA]I[Sar]P[NMeF][dP][hPhe(3-Cl-4-CF3)]P[Ac5c][NMeV][NMeD]-Piperidide; lactam N-11),55 nM
7,CCO[C@@H]1C[C@H]2C(=O)NC3(CCCC3)C(=O)N(C)[C@@H](CC(C)C)C(=O)N(C)[C@H](C)CC(=O)N(C)[C@@H](CC(C)C)C(=O)N[C@@H]([C@@H](C)CC)C(=O)N(C)CC(=O)N(C)CC(=O)N(C)[C@@H](CC3CCCCC3)C(=O)N(C)CC(=O)N[C@@H](CCc3ccc(C(F)(F)F)c(Cl)c3)C(=O)N2C1 [Compound 1851] (cyclo([Ac5c][NMeL][NMedβ3hAla][NMeL]I[Sar][Sar][NMeCha][Sar][hPhe(3-Cl-4-CF3)][Hyp](Et))),2.5 nM
8,CC[C@H](C)[C@@H]1NC(=O)[C@H](CC(C)C)N(C)C(=O)C[C@@H](C(=O)N2CCCC2)N(C)C(=O)[C@H](C2CCCCC2)N(C)C(=O)C2(CCCC2)NC(=O)[C@@H]2CCCN2C(=O)[C@H](CCc2ccc(C(F)(F)F)c(Cl)c2)NC(=O)CN(C)C(=O)[C@H](Cc2ccc(C)cc2)N(C)C(=O)[C@@H]2CCN2C(=O)[C@H](C)N(C)C1=O [Compound 1852] ([NMeL]I[NMeA][Aze][NMePhe(4-Me)][Sar][hPhe(3-Cl-4-CF3)]P[Ac5c][NMeChg][NMeD]-Pyrrolidide; lactam N-11),0.94 nM
9,CCCCC[C@H]1C(=O)N(C)CC(=O)N[C@@H](CCc2ccc(C(F)(F)F)c(Cl)c2)C(=O)N2CCC[C@H]2C(=O)NC2(CCCC2)C(=O)N(C)[C@@H](C(C)C)C(=O)N(C)[C@H](C(=O)N2CCCCC2)CC(=O)N(C)[C@@H](CC(C)C)C(=O)N[C@@H]([C@@H](C)CC)C(=O)N(C)[C@@H](C)C(=O)N2CC[C@H]2C(=O)N1C [Compound 1854] ([NMeL]I[NMeA][Aze][NMeAhp(2)][Sar][hPhe(3-Cl-4-CF3)]P[Ac5c][NMeV][NMeD]-Piperidide; lactam N-11),5.5 nM
10,CCCC[C@H]1C(=O)N(C)[C@H](C(=O)N2CCCCC2)CC(=O)N(C)[C@@H](CC(C)C)C(=O)N[C@@H]([C@@H](C)CC)C(=O)N(C)[C@@H](C)C(=O)N2CC[C@H]2C(=O)N(C)[C@@H](CC2CCCCC2)C(=O)N(C)CC(=O)N[C@@H](CCc2ccc(C(F)(F)F)c(Cl)c2)C(=O)N2CCC[C@H]2C(=O)NC2(CCCC2)C(=O)N1C [Compound 1859] ([NMeL]I[NMeA][Aze][NMeCha][Sar][hPhe(3-Cl-4-CF3)]P[Ac5c][NMeNle][NMeD]-Piperidide; lactam N-11),15 nM
11,CC[C@H](C)[C@@H]1NC(=O)[C@H]([C@@H](C)CC)N(C)C(=O)C[C@@H](C(=O)N2CCCCC2)N(C)C(=O)[C@H](C(C)C)N(C)C(=O)C2(CCCC2)NC(=O)[C@@H]2CCCN2C(=O)[C@H](CCc2ccc(C(F)(F)F)c(Cl)c2)NC(=O)CN(C)C(=O)[C@H](CC2CCCCC2)N(C)C(=O)[C@@H]2CCN2C(=O)[C@H](C)N(C)C1=O [Compound 1863] ([NMeI]I[NMeA][Aze][NMeCha][Sar][hPhe(3-Cl-4-CF3)]P[Ac5c][NMeV][NMeD]-Piperidide; lactam N-11),10 nM
12,CC[C@H](C)[C@@H]1NC(=O)[C@H](CC(C)C)N(C)C(=O)C[C@@H](C(=O)N2CCCC2)N(C)C(=O)[C@H](C(C)C)N(C)C(=O)C2(CCCC2)NC(=O)[C@@H]2CCCN2C(=O)[C@H](CCc2ccc(C(F)(F)F)c(Cl)c2)NC(=O)CN(C)C(=O)[C@H](Cc2ccc(C)cc2)N(C)C(=O)[C@@H]2CCN2C(=O)[C@H](C)N(C)C1=O [Compound 1866] ([NMeL]I[NMeA][Aze][NMePhe(4-Me)][Sar][hPhe(3-Cl-4-CF3)]P[Ac5c][NMeV][NMeD]-Pyrrolidide; lactam N-11),2.8 nM
13,CC[C@H](C)[C@@H]1NC(=O)[C@H](CC(C)C)N(C)C(=O)C[C@H](C(=O)N2CCCC2)N(C)C(=O)[C@H](C2CCCC2)N(C)C(=O)C2(CCCC2)NC(=O)[C@@H]2CCCN2C(=O)[C@H](CCc2ccc(C(F)(F)F)c(Cl)c2)NC(=O)CN(C)C(=O)[C@H](CC2CCCCC2)N(C)C(=O)[C@@H]2CCN2C(=O)[C@H](C)N(C)C1=O [Compound 1868] ([NMeL]I[NMeA][Aze][NMeCha][Sar][hPhe(3-Cl-4-CF3)]P[Ac5c][NMeGly(cPent)][dNMeD]-Pyrrolidide; lactam N-11),100 nM
14,CC[C@H](C)[C@@H]1NC(=O)[C@H](CC(C)C)N(C)C(=O)C[C@@H](CCc2ccccc2)NC(=O)[C@H]([C@@H](C)CC)N(C)C(=O)C2(CCCC2)NC(=O)[C@@H]2CCCN2C(=O)[C@H](CCc2ccc(C(F)(F)F)c(Cl)c2)NC(=O)CN(C)C(=O)[C@H](Cc2ccc(C)cc2)N(C)C(=O)[C@@H]2CCN2C(=O)[C@H](C)N(C)C1=O [Compound 1874] (cyclo([Ac5c][NMeI][dβ3h(hPhe)][NMeL]I[NMeA][Aze][NMePhe(4-Me)][Sar][hPhe(3-Cl-4-CF3)]P)),400 nM
15,C=CC[C@@H]1CC(=O)N(C)[C@@H](CC(C)C)C(=O)N[C@@H]([C@@H](C)CC)C(=O)N(C)[C@@H](C)C(=O)N2CC[C@H]2C(=O)N(C)[C@@H](Cc2ccc(C)cc2)C(=O)N(C)CC(=O)N[C@@H](CCc2ccc(C(F)(F)F)c(Cl)c2)C(=O)N2CCC[C@H]2C(=O)NC2(CCCC2)C(=O)N(C)[C@@H]([C@@H](C)CC)C(=O)N1 [Compound 1883] (cyclo([Ac5c][NMeI][X76][NMeL]I[NMeA][Aze][NMePhe(4-Me)][Sar][hPhe(3-Cl-4-CF3)]P)),65 nM
16,"CC[C@H](C)[C@@H]1NC(=O)[C@H](CC(C)C)N(C)C(=O)C[C@@H](CC(C)C)NC(=O)[C@H]([C@@H](C)CC)N(C)C(=O)C2(CCCC2)NC(=O)[C@@H]2CCCN2C(=O)[C@H](CCc2cc(F)c(C(F)(F)F)c(F)c2)NC(=O)CN(C)C(=O)[C@H](Cc2ccc(C)cc2)N(C)C(=O)[C@@H]2CCN2C(=O)[C@H](C)N(C)C1=O [Compound 1891] (cyclo([Ac5c][NMeI][d(β3hL)][NMeL]I[NMeA][Aze][NMePhe(4-Me)][Sar][hPhe(3,5-F2-4-CF3)]P))",230 nM
17,CC[C@H](C)[C@@H]1NC(=O)[C@H](CC(C)C)N(C)C(=O)C[C@@H](CC(C)C)NC(=O)[C@H]([C@@H](C)CC)N(C)C(=O)C2(CCCC2)NC(=O)[C@@H]2CCCN2C(=O)[C@H](CCc2ccc(C(F)(F)F)c(Cl)c2)NC(=O)CN(C)C(=O)[C@H](Cc2ccc(C(F)(F)F)cc2)N(C)C(=O)[C@@H]2CCN2C(=O)[C@H](C)N(C)C1=O [Compound 1899] (cyclo([Ac5c][NMeI][d(β3hL)][NMeL]I[NMeA][Aze][NMePhe(4-CF3)][Sar][hPhe(3-Cl-4-CF3)]P)),220 nM
18,CC[C@H](C)[C@@H]1NC(=O)[C@H](CC(C)C)N(C)C(=O)C[C@@H](C(F)(F)F)NC(=O)[C@H]([C@@H](C)CC)N(C)C(=O)C2(CCCC2)NC(=O)[C@@H]2CCCN2C(=O)[C@H](CCc2ccc(C(F)(F)F)c(Cl)c2)NC(=O)CN(C)C(=O)[C@H](Cc2ccc(C)cc2)N(C)C(=O)[C@@H]2CCN2C(=O)[C@H](C)N(C)C1=O [Compound 1919] (cyclo([Ac5c][NMeI][X133][NMeL]I[NMeA][Aze][NMePhe(4-Me)][Sar][hPhe(3-Cl-4-CF3)]P)),210 nM
